Entries after “also recorded” stand apart in the source; their conditions may differ.
B1: wild-type CYP102A1: bacterial cytochrome P450 BM3 (CYP102A1) from Bacillus megaterium, SEQ ID NO: 16 (protein)
chain: MTIKEMPQPKTFGELKNLPLLNTDKPVQALMKIADELGEIFKFEAPGRVTRYLSSQRLIKEACDESRFDKNLSQALKFVRDFAGDGLFTSWTHEKNWKKAHNILLPSFSQQAMKGYHAMMVDIAVQLVQKWERLNADEHIEVPEDMTRLTLDTIGLCGFNYRFNSFYRDQPHPFITSMVRALDEAMNKLQRANPDDPAYDENKRQFQEDIKVMNDLVDKIIADRKASGEQSDDLLTHMLNGKDPETGEPLDDENIRYQIITFLIAGHETTSGLLSFALYFLVKNPHVLQKAAEEAARVLVDPVPSYKQVKQLKYVGMVLNEALRLWPTAPAFSLYAKEDTVLGGEYPLEKGDELMVLIPQLHRDKTIWGDDVEEFRPERFENPSAIPQHAFKPFGNGQRACIGQQFALHEATLVLGMMLKHFDFEDHTNYELDIKETLTLKPEGFVVKAKSKKIPLGGIPSPSTEQSAKKVRKKAENAHNTPLLVLYGSNMGTAEGTARDLADIAMSKGFAPQVATLDSHAGNLPREGAVLIVTASYNGHPPDNAKQFVDWLDQASADEVKGVRYSVFGCGDKNWATTYQKVPAFIDETLAAKGAENIADRGEADASDDFEGTYEEWREHMWSDVAAYFNLDIENSEDNKSTLSLQFVDSAADMPLAKMHGAFSTNVVASKELQQPGSARSTRHLEIELPKEASYQEGDHLGVIPRNYEGIVNRVTARFGLDASQQIRLEAEEEKLAHLPLAKTVSVEELLQYVELQDPVTRTQLRAMAAKTVCPPHKVELEALLEKQAYKEQVLAKRLTMLELLEKYPACEMKFSEFIALLPSIRPRYYSISSSPRVDEKQASITVSVVSGEAWSGYGEYKGIASNYLAELQEGDTITCFISTPQSEFTLPKDPETPLIMVGPGTGVAPFRGFVQARKQLKEQGQSLGEAHLYFGCRSPHEDYLYQEELENAQSEGIITLHTAFSRMPNQPKTYVQHVMEQDGKKLIELLDQGAHFYICGDGSQMAPAVEATLMKSYADVHQVSEADARLWLQQLEEKGRYAKDVWAG

Experiments:
human CYP2C19 = human CYP2C19 (Homo sapiens, UniProt P33261); assay: Oxidation of omeprazole by human CYP2C19, metabolites by HPLC and LC-MS; type: in vitro ADME; settings: human CYP2C19, 100 μM omeprazole, NADPH-generating system, 37° C., 30 minutes
Chain of human CYP2C19 (P33261 whole entry): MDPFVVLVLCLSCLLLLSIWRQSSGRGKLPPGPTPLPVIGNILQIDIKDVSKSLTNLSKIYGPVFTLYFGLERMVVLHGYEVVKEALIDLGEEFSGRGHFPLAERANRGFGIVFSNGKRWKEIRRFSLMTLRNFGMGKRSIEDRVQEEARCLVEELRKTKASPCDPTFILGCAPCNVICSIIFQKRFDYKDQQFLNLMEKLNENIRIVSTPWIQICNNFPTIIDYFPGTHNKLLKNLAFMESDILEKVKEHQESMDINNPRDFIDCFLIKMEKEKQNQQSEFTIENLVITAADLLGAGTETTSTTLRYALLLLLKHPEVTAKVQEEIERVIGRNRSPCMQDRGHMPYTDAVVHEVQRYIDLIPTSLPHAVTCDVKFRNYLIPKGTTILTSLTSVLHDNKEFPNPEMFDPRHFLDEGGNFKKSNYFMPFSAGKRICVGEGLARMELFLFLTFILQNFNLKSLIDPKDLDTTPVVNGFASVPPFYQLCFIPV
Protocol: (§1) CYP102A1 50 pmol and 100 μM substrates were put into 100 mM of a potassium phosphate buffer (pH 7.4) 0.25 me and were subjected to a typical steady state reaction. In order to initiate the reaction, an NADPH-generating system (final concentration: 10 mM glucose 6-phosphate, 0.5 mM NADP^+, and 1 IU yeast glucose 6-phosphate dehydrogenase per 1 me) was added. 20 mM omeprazole solution was prepared by DMSO, and diluted with an enzyme reaction solution so that an organic solvent has the final concentration of 1%(v/v) or less. For measuring an activity of human CYP2C19, 50 pmol P450, 100 pmol NADPH-P450 reductase (CPR), 100 pmol cytochrome b5 and 45 μM L-α-dilauroyl-sn-glycero-3-phosphocholine (DLPC) were used instead of 50 pmol CYP102A1. The reaction solution was reacted at 37 for 30 minutes, and the reaction was terminated by dichloromethane prepared in a cold state with twice amounts of ice.
(§2) The reaction mixture was centrifuged to remove the supernatant, the solvent thereof was evaporated under nitrogen gas (see Vickers et al., 1990), and the obtained mixture was analyzed by HPLC (see Piver et al., 2004). A sample (30 μl) was injected into Gemini C18 column (4.6 mm×150 mm, 5 μm, Phenomenex, Torrance, Calif.). 30% acetonitrile was used as a mobile phase.

CYP102A1 (P450 BM3) = settings: bacterial wild-type CYP102A1 and mutants, 100 μM omeprazole, NADPH-generating system
Protocol: as §1, §2

[1] = Total turnover number (TTN) of omeprazole oxidation by CYP102A1 enzymes, HPLC; type: biochemical, Bacillus megaterium; settings: 0.1 mM to 2 mM omeprazole, 30 minutes up to 5 hours, NADPH-generating system
Protocol: 30% acetonitrile was used as a mobile phase.
It could be confirmed from the results of FIG. 5 that the turnover number of the wild-type CYP102A1, 17 kinds of mutants thereof, and 6 kinds of mutant kimeras varied at a large range. In addition, the total turnover number (TTNs) (mol product/mol catalyst) of the CYP102A1 mutant was investigated. In order to measure TTNs of the CYP102A1 mutant, 0.1 mM to 2 mM omeprazole was used, and the reaction was performed with an interval from 30 minutes up to 5 hours. The production rate of the omeprazole metabolite was determined by HPLC.

| Molecule | main metabolites produced from omeprazole (human CYP2C19) | main product produced from omeprazole (CYP102A1 (P450 BM3)) | total turnover number (TTNs), activity towards omeprazole [1] |
| --- | --- | --- | --- |
| COc1ccc2[nH]c([S+]([O-])Cc3ncc(C)c(OC)c3C)nc2c1 (racemic) [omeprazole] | 3′-hydroxyomeprazole and 5′-hydroxyomeprazole | 5′-hydroxyomeprazole |  |
| B1 |  |  | the activity with respect to the omeprazole was hardly shown; also recorded: hardly had an activity with respect to omeprazole |
